The values below come from patent US6548521B1, “Inhibitors of metazoan parasite proteases” (The Regents of the University of California, priority 1992, dated 2003).

pIC50: −log10 of the molar value. A value given as a limit tells only on which side of the number the result lay.

One test deals with Plasmodium falciparum clone from CDC/Indochina III (W-2). Nature of the test: WRAIR in vitro antimalarial serial dilution assay ([3H]-hypoxanthine incorporation). It counts as cell-based.
Details: not given
From the text:
The Walter Reed Army Institute of Research (WRAIR) in vitro screens for intrinsic antimalarial activity are based on modifications of procedures described in the literature [Desjardins, R. E. et al. (1979) J.D. Antimicrobial Agents and Chemotherapy, 16(6):710-8]; Chulay et al. (1983) [Journal of Infectious Diseases 148(1):148-55]; Milhous, W. K. et al. (1985) [Antimicrobial Agents and Chemotherapy 27(4):525-30]. The system is directed to the assessment of the intrinsic activity against the erythrocytic asexual life cycle (blood schizontocides)]. A minimum of 10 mg of sample is generally submitted for initial testing. Two Plasmodium falciparum clones from CDC/Indochina III (W-2) and CDC/Sierra Leone I (D-6) [Oduola, A. M. et al. (1988) [Experimental Parasitology 67(2):354-60] are used for all assays. W-2 is resistant to chloroquine, quinine and pyrimethamine and susceptible to mefloquine. D-6 is resistant to mefloquine and susceptible to chloroquine, quinine and pyrimethamine.
The clones are maintained in continuous log-phase growth in RPMI-1640 medium supplemented with 6% washed human A+ erythrocytes, 25 mM Hepes, […] NaHCO3 and 10% heat inactivated A+ human plasma or albuMAX™ (lipid-rich bovine serum albumin, GIBCO, Grand Island, N.Y.). All cultures and assays are conducted at 37° C. under an atmosphere of 5% CO2 and 5% O2, with a balance of N2.
The preliminary screen uses D-6 diluted to a 0.2% parasitemia in a 1% hematocrit in folic acid free and p-aminobenzoic acid free RPMI-1640 and albuMAX™ (FF-CM). […] The compound is further diluted to a stock solution to 10 ml with FF-CM. This stock solution is kept at −70° C. until used. The clone is preexposed, in duplicate, at three concentrations (50,000 ng/ml, 5,000 ng/ml and 50 ng/ml) of the test compound for 48 hr in a 96-well microliter plate (MTP) using a Biomek® 1000 automated laboratory workstation (Beckman Instruments, Fullerton, Calif.). Each MTP contains chloroquine-containing controls to assess the relative activity of the unknown compound and to monitor the response of D-6.
After the preincubation, [^3H]-hypoxanthine is added to each well of the MTP to determine if the parasites can still replicate or repair DNA. After 66 hr of total incubation time, the MTP are frozen to lyse the erythrocytes and parasites. The parasite DNA is recovered by harvesting the lysate onto glass-fiber filters using a Mark II cell-harvester (Tomtec, Orange, Conn.). The radioactivity is counted on a 1205 Betaplate™ liquid scintillation counter (Wallac, Turku, Finland).
The serial dilution assay is conducted using the same assay conditions and stock solution of the compound used for the preliminary screen. Both the D-6 and the W-2 clones are used. The compound is diluted two-fold over 11 different concentration ranges with a starting concentration that is based on the preliminary screen. The IC50 is determined by a non-linear logistic dose response analysis (TableCurve™, Jandel Scientific, Corte Madera, Calif.). […] For each assay, the IC50 for each clone is determined against the known antimalarials chloroquine, mefloquine, artemisinin, quinine and pyrimethamine. These control values establish the unknown compound's relative parasite susceptibility profile compared to known antimalarials. IC50s can be similarly determined for drug-resistant isolates/clones from a wide variety of geographic locations.
`O=C(/C=C/c1ccccc1O)c1ccc(O)cc1O` [Compound 21]: the “antimalarial activity (in words)” value is “activity similar to that of hydrazide derivative IV44A”. The same measure, in the same setting: the value for `COc1ccc(C(=O)/C=C/c2ccc([N+](=O)[O-])cc2)cc1OC` [Compound 24] was “poor activity”; that for `O=C(C=Cc1ccccc1)n1ccnc1` [Compound 48, cinnamoylimidazole, reference compound] was “substantially no activity”.

The test is the same for the next values; noted with them: Plasmodium falciparum, Table I, formula III; W2 clone (CDC/Indochina III); * run: chloroquine 0.23 μM; † run: chloroquine 0.2-0.4 μM.
As a reminder, the pIC50 is the IC50 on a negative log10 scale, so that one unit is a factor of ten. In turn, `CCN(CC)CCCC(C)Nc1ccnc2cc(Cl)ccc12` (stereo not drawn) [Chloroquine, chloroquine, reference compound] gave a pIC50 of 6.64.

Staying with this test, now noted: Plasmodium falciparum, Table II, formula IV; * run: chloroquine 0.2-0.4 μM.
For `CCN(CC)CCCC(C)Nc1ccnc2cc(Cl)ccc12` (stereo not drawn) [Chloroquine, chloroquine, reference compound], the pIC50 is 6.40 to 6.70.

The same test, now with this note: Plasmodium falciparum, Table III, formula V.
Take `CCN(CC)CCCC(C)Nc1ccnc2cc(Cl)ccc12` (stereo not drawn) [Chloroquine, chloroquine, reference compound]: the pIC50 is 6.40 to 6.70.

The test is the same for the next values; noted with them: Plasmodium falciparum, read-out: WR, IC50 (μM), Table IV, formula VI.
A word on the IC50: it is the concentration needed to halve the response being measured. `CCN(CC)CCCC(C)Nc1ccnc2cc(Cl)ccc12` (stereo not drawn) [Chloroquine, chloroquine, reference compound]: the IC50 is 0.23 µM.

The same test, now with this note: Plasmodium falciparum; similar tests.
Molecule `CCN(CC)CCCC(C)Nc1ccnc2cc(Cl)ccc12` (stereo not drawn) [Chloroquine, chloroquine, reference compound] showed a pIC50 of 6.40 to 6.70.

Staying with this test, now noted: Plasmodium falciparum; similar tests; read-out: IC50.
Turning to `COc1ccc(C(=O)/C=C/c2cccnc2)c(OC)c1` [Compound 44], the pIC50 was 5.51. The same measure, in the same setting: the value for `Cn1cc(/C=C/C(=O)c2ccc(-n3ccnc3)cc2)c2ccccc21` [Compound 56] was 4.70.

Staying with this test, now noted: Table I, formula III; W2 clone (CDC/Indochina III); * run: chloroquine 0.23 μM; † run: chloroquine 0.2-0.4 μM.
As for `CCN(CC)CCCC(C)Nc1ccnc2cc(Cl)ccc12` (stereo not drawn) [Chloroquine, chloroquine, reference compound], the pIC50 is 6.70.

The same test, now with this note: Table I, formula III; W2 clone (CDC/Indochina III); * run: chloroquine 0.23 μM; † run: chloroquine 0.2-0.4 μM; read-out: IC50.
Take `COc1ccc(C(=O)/C=C/c2cccc(Cl)c2Cl)cc1OC` [Compound 2]: the negative-log IC50 (pIC50) was 6.41. On to `COc1ccc(C(=O)/C=C/c2ccc(Cl)cc2Cl)c(OC)c1` [Compound 3], for which the pIC50 is 6.38.

`COc1ccc(C(=O)/C=C/c2ccc(F)c(F)c2)c(OC)c1` [Compound 4]: the pIC50 is 6.33. Consider `COc1ccc(C(=O)/C=C/c2ccc(Cl)cc2)c(OC)c1` [Compound 5], for which the pIC50 is 6.20. Still for that read-out and setting: the value for `COc1ccc(C(=O)/C=C/c2cccc(Cl)c2)c(OC)c1` [Compound 6] was 6.13.

As to `COc1ccc(C(=O)/C=C/c2ccc(F)cc2F)c(OC)c1` [Compound 7], the pIC50 is 6.11.

Consider `O=C(/C=C/c1cc(Cl)cc(Cl)c1)c1ccc(Cl)cc1Cl` [Compound 8], for which the pIC50 is 6.05. The same measure, in the same setting: under `COc1ccc(C(=O)/C=C/c2ccccc2OC)c(OC)c1` [Compound 9] stands 6.02; under `COc1ccc(C(=O)/C=C/c2cc(F)ccc2F)c(OC)c1` [Compound 10], 5.89; under `COc1ccc(C(=O)/C=C/c2ccc(N(C)C)cc2)c(OC)c1` [Compound 11], 5.85. On the same count and under the same terms, under `COc1ccc(/C=C/C(=O)c2cc(Cl)ccc2Cl)c(OC)c1` [Compound 12] stands 5.72; under `COc1ccc(C(=O)/C=C/c2c(F)cccc2F)cc1OC` [Compound 13], 5.70; under `COc1ccc(C(=O)/C=C/c2c(Cl)cccc2Cl)c(OC)c1` [Compound 14], 5.62. The same measure, in the same setting: the value for `COc1ccc(/C=C/C(=O)c2ccc(Cl)c(Cl)c2)c(OC)c1` [Compound 16] was 5.49; that for `COc1ccc(/C=C/C(=O)c2ccc(OC)cc2OC)c(OC)c1` [Compound 17] was 5.44; that for `O=C(/C=C/c1ccc(Cl)cc1)c1ccc(Cl)cc1Cl` [Compound 18] was 5.44. For `O=C(/C=C/c1ccccc1)c1ccc(O)cc1O` [Compound 19], the pIC50 is 5.44.

Take `COc1ccc(/C=C/C(=O)c2ccc(Cl)cc2Cl)c(OC)c1` [Compound 20]: the pIC50 is 5.42. Still for that read-out and setting: the value for `O=C(/C=C/c1ccccc1O)c1ccc(O)cc1O` [Compound 21] was 5.41; that for `COc1ccc(C(=O)/C=C/c2c(OC)cccc2OC)cc1OC` [Compound 22] was 5.38. The same measure, in the same setting: the value for `COc1ccc(C(=O)/C=C/c2ccccc2Cl)c(OC)c1` [Compound 23] was 5.24. Still for that read-out and setting: the value for `COc1ccc(C(=O)/C=C/c2ccc([N+](=O)[O-])cc2)cc1OC` [Compound 24] was 5.23; that for `COc1ccccc1/C=C/C(=O)c1ccccc1O` [Compound 25] was 5.16. As for `O=C(/C=C/c1ccc(O)cc1)c1ccc(O)cc1O` [Compound 26], the pIC50 was 5.13. `COc1ccc(C(=O)/C=C/c2c(Cl)cccc2Cl)cc1OC` [Compound 27]: the pIC50 was 5.10. Still for that read-out and setting: the value for `COc1ccc(C(=O)/C=C/c2c(F)cccc2F)c(OC)c1` [Compound 28] was 5.09. The same measure, in the same setting: under `COc1ccc(C(=O)/C=C/c2c(OC)cccc2OC)c(OC)c1` [Compound 29] stands 5.07. Regarding `COc1ccc(C(=O)/C=C/c2cc(Cl)cc(Cl)c2)cc1OC` [Compound 30], the pIC50 is 5.06.

On to `O=C(/C=C/c1ccccc1)c1ccc(O)c(O)c1O` [Compound 31], for which the pIC50 is 5.00. On the same count and under the same terms, under `COc1ccc(/C=C/C(=O)c2ccc(F)cc2F)c(OC)c1` [Compound 32] stands 4.95. Regarding `O=C(/C=C/c1ccc(Cl)cc1Cl)c1ccc(Cl)c(Cl)c1` [Compound 33], the pIC50 is 4.84. As for `O=C(/C=C/c1ccccc1O)c1ccccc1O` [Compound 34], the pIC50 was 4.83. On the same count and under the same terms, the value for `COc1ccc(C(=O)/C=C/c2ccc(F)c(F)c2)cc1OC` [Compound 35] was 4.79; that for `COc1ccc(/C=C/C(=O)c2ccccc2O)cc1OC` [Compound 36] was 4.79; that for `COc1ccc(C(=O)/C=C/c2ccc(Cl)cc2)cc1OC` [Compound 37] was 4.78.

With `COc1ccc(C(=O)/C=C/c2ccc(Cl)cc2Cl)cc1OC` [Compound 38], the pIC50 is 4.71. Same read-out and setting: the value for `O=C(/C=C/c1ccc(O)cc1)c1ccccc1O` [Compound 39] was 4.64. For `O=C(/C=C/c1ccc(Cl)cc1)c1ccc(Cl)c(Cl)c1` [Compound 40], the negative-log IC50 (pIC50) is 4.50. Still for that read-out and setting: the value for `O=C(/C=C/c1cccc(O)c1)c1ccccc1O` [Compound 41] was 4.11; that for `COc1ccc(C(=O)/C=C/c2ccc(F)cc2F)cc1OC` [Compound 42] was 3.96; that for `COc1ccc(C(=O)/C=C/c2cc(Cl)cc(Cl)c2)c(OC)c1` [Compound 43] was < 3.83.

Staying with this test, now noted: Table II, formula IV; * run: chloroquine 0.2-0.4 μM.
As to `CCN(CC)CCCC(C)Nc1ccnc2cc(Cl)ccc12` (stereo not drawn) [Chloroquine, chloroquine, reference compound], the pIC50 is 6.70.

The test is the same for the next values; noted with them: Table III, formula V; read-out: IC50.
As for `O=C(/C=C/c1ccc(Cl)cc1Cl)c1ccc(-n2ccnc2)cc1` [Compound 49], the pIC50 is 6.14. The same measure, in the same setting: under `O=C(/C=C/c1cc(Cl)cc(Cl)c1)c1ccc(-n2ccnc2)cc1` [Compound 50] stands 6.04; under `O=C(/C=C/c1cccc(Cl)c1Cl)c1ccc(-n2ccnc2)cc1` [Compound 51], 5.74.

For the molecule `O=C(/C=C/c1c(Cl)cccc1Cl)c1ccc(-n2ccnc2)cc1` [Compound 52], the pIC50 is 5.72.

As to `O=C(/C=C/c1ccc(F)cc1F)c1ccc(-n2ccnc2)cc1` [Compound 53], the pIC50 was 5.49. The same measure, in the same setting: under `O=C(/C=C/c1c(F)cccc1F)c1ccc(-n2ccnc2)cc1` [Compound 54] stands 5.11; under `CN(C)c1ccc(/C=C/C(=O)c2ccc(-n3ccnc3)cc2)cc1` [Compound 55], 4.74.

Still in this test, the particulars now being: read-out: IC50.
As to `COc1ccc(/C=C/C(=O)c2ccccn2)c(OC)c1` [Compound 45], the negative logarithm of the IC50 (pIC50) was 5.34. For `COc1ccc(/C=C/C(=O)c2cccnc2)c(OC)c1` [Compound 46], the pIC50 was 5.14. The same measure, in the same setting: under `O=C(/C=C/c1ccc(Cl)c([N+](=O)[O-])c1)c1ccccn1` [Compound 47] stands 5.09; under `O=C(C=Cc1ccccc1)n1ccnc1` [Compound 48, cinnamoylimidazole, reference compound], < 3.60.

Still in this test, the particulars now being: similar tests; read-out: IC50.
As for `COc1ccc(C(=O)/C=C/c2cccc(Cl)c2Cl)c(OC)c1` [Compound 1], the pIC50 was 6.42. On the same count and under the same terms, under `COc1ccc(C(=O)/C=C/c2cccc(F)c2F)c(OC)c1` [Compound 15] stands 5.55.
